The text below walks through data of US20100137353A1, “TRICYCLIC COMPOUNDS AS ANTIBACTERIALS” (GLAXO GROUP LIMITED, priority 2007, published 2010).

Experiment [1] can be described thus: Whole-cell antimicrobial activity assay, broth microdilution (CLSI M7-A7). In kind it is cell-based. To be noted: against a strain of at least one of the organisms listed; tested in at least one exemplified salt form; dilutions 0.016 to 16 mcg/mL; read-out: MIC (minimum inhibitory concentration). Here is the method: Whole-cell antimicrobial activity was determined by broth microdilution using the Clinical and Laboratory Standards Institute (CLSI) recommended procedure, Document M7-A7, “Methods for Dilution Susceptibility Tests for Bacteria that Grow Aerobically”. The compounds were tested in serial two-fold dilutions ranging from 0.016 to 16 mcg/mL.
The minimum inhibitory concentration (MIC) was determined as the lowest concentration of compound that inhibited visible growth. A mirror reader was used to assist in determining the MIC endpoint.
Compounds were evaluated against Gram-positive organisms, including Staphylococcus aureus, Streptococcus pneumoniae, Streptococcus pyogenes, Enterococcus faecalis and Enterococcus faecium.
In addition, compounds were evaluated against Gram-negative strains including Haemophilus influenzae, Moraxella catarrhalis, Escherichia coli, Pseudomonas aeruginosa, Proteus mirabilis, Enterobacter cloacae, Enterobacter aerogenes, Klebsiella pneumoniae and Stenotrophomonas maltophilia.
(Dilution methods test growth across graded concentrations, often in twofold steps.)

Experiment [2] concerns Mycobacterium tuberculosis H37Rv. In words: Mycobacterium tuberculosis H37Rv Inhibition Assay. In kind it is cell-based. To be noted: ATCC 25618 / H37Rv, H37Rv strain (ATCC25618), Middlebrook 7H9+ADC, resazurin fluorescence readout. How it is done: Mycobacterium tuberculosis H37Rv Inhibition Assay
The measurement of the minimum inhibitory concentration (MIC) for each tested compound was performed in 96 wells flat-bottom, polystyrene microtiter plates. Ten two-fold drug dilutions in neat DMSO starting at 400 μM were performed. Five μl of these drug solutions were added to 95 μl of Middlebrook 7H9 medium. (Lines A-H, rows 1-10 of the plate layout). Isoniazid was used as a positive control, 8 two-fold dilution of Isoniazid starting at 160 μgml^−1 was prepared and 5 μl of this control curve was added to 95 μl of Middlebrook 7H9 (Difco catalogue Ref. 271310)+ADC medium (Becton Dickinson Catalogue Ref 211887). (Row 11, lines A-H). Five μl of neat DMSO were added to row 12 (growth and Blank controls).
The inoculum was standardised to approximately 1×10^7 cfu/ml and diluted 1 in 100 in Middlebrook 7H9+ADC medium and 0.025% Tween 80 (Sigma P4780), to produce the final inoculum of H37Rv strain (ATCC25618). One hundred μl of this inoculum was added to the entire plate but G-12 and H-12 wells (Blank controls). All plates were placed in a sealed box to prevent drying out of the peripheral wells and they were incubated at 37° C. without shaking for six days. […] Fluorescence was measured (Spectramax M5 Molecular Devices, Excitation 530 nm, Emission 590 nm) after 48 hours to determine the MIC value. […]
In general terms: The colour change of resazurin is a common sign of viable cells or microbes.

Structures can show the parent of a compound that is named as a salt.

Regarding `O=c1ccc2ncc(F)c3c2n1C[C@@]3(O)CN1CCC(NC/C=C/c2ccccn2)CC1` [Example 1, (4S)-3-Fluoro-4-hydroxy-4-[(4-{[(2E)-3-(2-pyridinyl)-2-propen-1-yl]amino}-1-piperidinyl)methyl]-4,5-dihydro-7H-pyrrolo[3,2,1-de]-1,5-naphthyridin-7-one dihydrochloride], the MIC in experiment [1] is at most 2 µg/mL.

As for `O=c1ccc2ncc(F)c3c2n1C[C@@]3(O)CN1CCC(NC/C=C/c2ccco2)CC1` [Example 2, (4S)-3-Fluoro-4-[(4-{[(2E)-3-(2-furanyl)-2-propen-1-yl]amino}-1-piperidinyl)methyl]-4-hydroxy-4,5-dihydro-7H-pyrrolo[3,2,1-de]-1,5-naphthyridin-7-one dihydrochloride], the MIC in experiment [2] was at most 5.1 µg/mL; in experiment [1], at most 2 µg/mL.
